The target in the first assay is T1, pSTAT6 (Homo sapiens, UniProt P42226).
T1 sequence (P42226 1-847): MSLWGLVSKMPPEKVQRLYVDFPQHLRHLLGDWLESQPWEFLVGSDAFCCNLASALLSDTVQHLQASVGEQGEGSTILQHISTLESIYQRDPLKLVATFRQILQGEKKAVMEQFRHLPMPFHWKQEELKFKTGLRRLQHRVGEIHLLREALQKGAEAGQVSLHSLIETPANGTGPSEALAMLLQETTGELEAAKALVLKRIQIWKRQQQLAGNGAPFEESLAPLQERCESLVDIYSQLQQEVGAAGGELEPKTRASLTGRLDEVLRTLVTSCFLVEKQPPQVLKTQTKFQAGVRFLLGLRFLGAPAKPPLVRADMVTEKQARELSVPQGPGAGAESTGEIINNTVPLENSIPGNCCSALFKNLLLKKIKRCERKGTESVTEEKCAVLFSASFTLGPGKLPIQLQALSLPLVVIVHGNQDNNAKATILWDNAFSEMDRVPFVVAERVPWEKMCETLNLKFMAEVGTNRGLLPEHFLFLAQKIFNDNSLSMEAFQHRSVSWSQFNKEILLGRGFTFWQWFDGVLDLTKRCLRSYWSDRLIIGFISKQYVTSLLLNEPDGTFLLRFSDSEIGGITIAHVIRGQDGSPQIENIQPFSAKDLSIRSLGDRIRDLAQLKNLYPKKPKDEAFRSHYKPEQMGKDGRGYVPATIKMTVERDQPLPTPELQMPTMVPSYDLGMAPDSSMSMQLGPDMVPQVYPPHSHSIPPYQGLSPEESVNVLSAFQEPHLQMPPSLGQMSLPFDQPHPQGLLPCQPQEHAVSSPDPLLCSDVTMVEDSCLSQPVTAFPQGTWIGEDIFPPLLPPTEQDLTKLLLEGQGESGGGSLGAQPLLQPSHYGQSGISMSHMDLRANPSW
Kind of assay: MSD-pSTAT-PBMC Assay (pSTAT6, IL-4 stimulated). The class given is cell-based. The conditions noted are these: compound 3 hrs, then 1 ng/mL IL-4 10 min, pY641-STAT6, read-out: pSTAT6 IC50. The source says: Cryopreserved Peripheral Blood Mononuclear Cells (PBMC) are from AllCells. Recombinant Human IL-4 and IL-6 are from Peprotech. Mouse monoclonal anti-STAT3 antibody, rabbit monoclonal anti-pY705-STAT3 antibody, rabbit monoclonal Anti-pY641-STAT6 antibody, and lysis buffer are from Cell Signaling Technology (CST). Mouse monoclonal anti-STAT6 antibody is from BioLegend. Assay plates, blocker, and anti-rabbit secondary antibody are from Meso Scale Discovery (MSD).
Cryopreserved PBMCs were thawed out and allowed to recover overnight in IMDM+10% heat-inactivated FBS prior to plating 50,000 (STAT3) or 25,000 (STAT6) cells per well in 96-well U-bottom tissue culture plates. Cells were treated with compound for 3 hrs, then stimulated with 10 ng/mL IL-6 (STAT3) or 1 ng/mL IL-4 (STAT6) for 10 min. Cells were then spun down and washed with ice-cold PBS prior to lysing the cell pellet with 1× lysis buffer (CST) with 1× HALT protease and phosphatase inhibitor cocktail (Thermo). Lysates were transferred to and incubated overnight at 4° C. with shaking in QuickPlex 96-well high bind assay plates (MSD) pre-coated overnight with 30 μL per well of […] mouse monoclonal anti-STAT3 antibody (STAT3) or 2 μg/mL mouse monoclonal anti-STAT6 antibody (STAT6) in 1× PBS, and pre-blocked for 1 hour with 3% Blocker-A (MSD). Captured protein in the assay plates were then washed and probed with 25 μL per well of […] rabbit monoclonal anti-pY705-STAT3 antibody (STAT3) or […] rabbit monoclonal Anti-pY641-STAT6 antibody (STAT6) in 1% Blocker-A for 1 hour at room temperature with shaking, then washed and probed with 25 ul per well of 1 ug/ml Sulfo-TAG Labeled Goat Anti-Rabbit Antibody (MSD) in 1% Blocker-A for 1 hour at room temperature with shaking. Assay plates were then washed and 150 μL of 1× Read Buffer-T (MSD) was added to each well prior to reading on an SQ120 MSD Plate Reader. Assay signal from each sample was subtracted by the signal from unstimulated control wells and normalized to DMSO control wells. IC50 values were calculated using Graph Pad Prism Dose-Response Nonlinear Regression with variable slope. For both pSTAT3 and pSTAT6 A=≤100 nM; B=>100-1000 nM; C=>1000-3000 nM; and D=>3 μM.
For `CCCC(=O)SCCOP(=O)(OCCSC(=O)CCC)C(F)(F)c1ccc2sc(C(=O)N[C@H]3CCCC[C@H]4CC[C@@H](C(=O)N5C[C@@H](c6ccn(CCCCCOc7ccc(C8CCC(=O)NC8=O)cc7)c(=O)c6)CC56CC6)N4C3=O)cc2c1` (stereo partly drawn) [Compound 18, S,S(((((2-(((3S,6S,10aS)-3-((6R)-6-(1-(5-(4-(2,6-dioxopiperidin-3-yl)phenoxy)pentyl)-2-oxo-1,2-dihydropyridin-4-yl)-4-azaspiro[2.4]heptane-4-carbonyl)-5-oxodecahydropyrrolo[1,2-a]azocin-6-yl)carbamoyl)benzo[b]thiophen-5-yl)difluoromethyl)phosphoryl)bis(oxy))bis(ethane-2,1-diyl)) dibutanethioate], the IC50 was < 0.1 µM.

With `CCCC(=O)SCCOP(=O)(OCCSC(=O)CCC)C(F)(F)c1ccc2sc(C(=O)N[C@H]3CCCC[C@H]4CC[C@@H](C(=O)N5C[C@@H](C#N)[C@H](c6cccc(OCCCCCC#Cc7cccc8c7CN(C7CCC(=O)NC7=O)C8=O)c6)C5)N4C3=O)cc2c1` (relative stereo) [Compound 14, S,S(((((2-(((3S,6S,10aS)-3-((rel-3S,4R)-3-cyano-4-(3-((7-(2-(2,6-dioxopiperidin-3-yl)-1-oxoisoindolin-4-yl)hept-6-yn-1-yl)oxy)phenyl)pyrrolidine-1-carbonyl)-5-oxodecahydropyrrolo[1,2-a]azocin-6-yl)carbamoyl)benzo[b]thiophen-5-yl)difluoromethyl)phosphoryl)bis(oxy))bis(ethane-2,1-diyl)) dibutanethioate], the IC50 fell in the range of 0.1 to 1 µM.

With `CCCC(=O)SCCOP(=O)(OCCSC(=O)CCC)C(F)(F)c1ccc2sc(C(=O)N[C@H]3CCCC[C@H]4CC[C@@H](C(=O)N5C[C@@H](c6ccn(CCOCCOCCOc7cccc8c7CN(C7CCC(=O)NC7=O)C8=O)c(=O)c6)CC56CC6)N4C3=O)cc2c1` (stereo partly drawn) [Compound 26, S,S((((2-(((3S,6S,10aS)-3-((6R)-6-(1-(2-(2-(2-((2-(2,6-dioxopiperidin-3-yl)-1-oxoisoindolin-4-yl)oxy)ethoxy)ethoxy)ethyl)-2-oxo-1,2-dihydropyridin-4-yl)-4-azaspiro[2.4]heptane-4-carbonyl)-5-oxodecahydropyrrolo[1,2-a]azocin-6-yl)carbamoyl)benzo[b]thiophen-5-yl)difluoromethyl)phosphoryl)bis(oxy))bis(ethane-2,1-diyl)) dibutanethioate], the IC50 is 0.1 to 1 µM.

On to `CCCC(=O)SCCOP(=O)(OCCSC(=O)CCC)C(F)(F)c1ccc2sc(C(=O)N[C@H]3CCCC[C@H]4CC[C@@H](C(=O)N5C[C@@H](c6ccn(CCCCCCC#Cc7cccc8c7CN(C7CCC(=O)NC7=O)C8=O)c(=O)c6)CC56CC6)N4C3=O)cc2c1` (stereo partly drawn) [Compound 6, S,S((((2-(((3S,6S,10aS)-3-((6R)-6-(1-(8-(2-(2,6-dioxopiperidin-3-yl)-1-oxoisoindolin-4-yl)oct-7-yn-1-yl)-2-oxo-1,2-dihydropyridin-4-yl)-4-azaspiro[2.4]heptane-4-carbonyl)-5-oxodecahydropyrrolo[1,2-a]azocin-6-yl)carbamoyl)benzo[b]thiophen-5-yl)difluoromethyl)phosphoryl)bis(oxy))bis(ethane-2,1-diyl)) dibutanethioate], for which the IC50 is < 0.1 µM.

As to `CCCC(=O)SCCOP(=O)(OCCSC(=O)CCC)C(F)(F)c1ccc2sc(C(=O)NC3CCCCC4CCC(C(=O)N5CC(C#N)C(c6cccc(OCCOCCOc7cccc8c7CN(C7CCC(=O)NC7=O)C8=O)c6)C5)N4C3=O)cc2c1` [Compound 15, S,S(((((2-(((3S,6S,10aS)-3-((rel-3S,4R)-3-cyano-4-(3-(2-(2-((2-(2,6-dioxopiperidin-3-yl)-1-oxoisoindolin-4-yl)oxy)ethoxy)ethoxy)phenyl)pyrrolidine-1-carbonyl)-5-oxodecahydropyrrolo[1,2-a]azocin-6-yl)carbamoyl)benzo[b]thiophen-5-yl)difluoromethyl)phosphoryl)bis(oxy))bis(ethane-2,1-diyl)) dibutanethioate], the IC50 was < 0.1 µM.

Turning to `CCCC(=O)SCCOP(=O)(OCCSC(=O)CCC)C(F)(F)c1ccc2sc(C(=O)NC3CCCCC4CCC(C(=O)N5CC(C#N)C(c6cccc(OCCCCOc7ccc(C8CCC(=O)NC8=O)cc7)c6)C5)N4C3=O)cc2c1` [Compound 4, trans-S,S(((((2-(((3S,6S,10aS)-3-(3-cyano-4-(3-(4-(4-(2,6-dioxopiperidin-3-yl)phenoxy)butoxy)phenyl)pyrrolidine-1-carbonyl)-5-oxodecahydropyrrolo[1,2-a]azocin-6-yl)carbamoyl)benzo[b]thiophen-5-yl)difluoromethyl)phosphoryl)bis(oxy))bis(ethane-2,1-diyl)) dibutanethioate], the IC50 was < 0.1 µM.

Staying with this assay, now noted: read-out: pSTAT6 IC50, compound 3 hrs, then 1 ng/mL IL-4 10 min, pY641-STAT6.
`CCCC(=O)SCCOP(=O)(OCCSC(=O)CCC)C(F)(F)c1ccc2sc(C(=O)N[C@H]3CCCC[C@H]4CC[C@@H](C(=O)N5C[C@@H](c6ccn(C7CCN(c8ccc9c(c8)[nH]c(=O)n9C8CCC(=O)NC8=O)CC7)c(=O)c6)CC56CC6)N4C3=O)cc2c1` (stereo partly drawn) [Compound 25, S,S((((2-(((3S,6S,10aS)-3-((6R)-6-(1-(1-(1-(2,6-dioxopiperidin-3-yl)-2-oxo-2,3-dihydro-1H-benzo[d]imidazol-5-yl)piperidin-4-yl)-2-oxo-1,2-dihydropyridin-4-yl)-4-azaspiro[2.4]heptane-4-carbonyl)-5-oxodecahydropyrrolo[1,2-a]azocin-6-yl)carbamoyl)benzo[b]thiophen-5-yl)difluoromethyl)phosphoryl)bis(oxy))bis(ethane-2,1-diyl)) dibutanethioate]: the IC50 fell in the range of 0.1 to 1 µM.

Consider `CCCC(=O)SCCOP(=O)(OCCSC(=O)CCC)C(F)(F)c1ccc2sc(C(=O)NC3CCCCC4CCC(C(=O)N5CC(C#N)C(c6cccc(N7CCN(c8ccc9c(c8)[nH]c(=O)n9C8CCC(=O)NC8=O)CC7)c6)C5)N4C3=O)cc2c1` [Compound 23, S,S(((((2-(((3S,6S,10aS)-3-((rel-3S,4R)-3-cyano-4-(3-(4-(1-(2,6-dioxopiperidin-3-yl)-2-oxo-2,3-dihydro-1H-benzo[d]imidazol-5-yl)piperazin-1-yl)phenyl)pyrrolidine-1-carbonyl)-5-oxodecahydropyrrolo[1,2-a]azocin-6-yl)carbamoyl)benzo[b]thiophen-5-yl)difluoromethyl)phosphoryl)bis(oxy))bis(ethane-2,1-diyl)) dibutanethioate], for which the IC50 is < 0.1 µM.

Source of the values: patent US20260306642A1, “STAT DEGRADERS AND USES THEREOF” (Recludix Pharma, Inc., priority 2023, published 2026).
